Assay results: patent US6335451B1, “Five-membered heterocycles having biphenylsulfonyl substitution, with sulfonylcyanamide side chain, compositions containing them, and methods of using them” (Hoechst Aktiengesellschaft, priority 1997, dated 2002)

System: Na+-dependent Cl−/HCO3− exchanger (NCBE)
Experiment: Inhibition of the Na+-dependent Cl−/HCO3− exchanger (NCBE) in human endothelial cells (pHi recovery, BCECF fluorescence, FLIPR)
Type: cell-based
Conditions: inhibitor concentration of 10 μM; human endothelial cells (ECV-304); relative to 100% and 0% pHi recovery controls, 50 μM HOE 642 present
Description: Inhibition of the Na^+-dependent Cl^−/HCO3^− exchanger (NCBE) in human endothelial cells
Human endothelial cells (ECV-304) were detached from culture bottles with the aid of trypsin/EDTA buffer (0.05/0.02% in phosphate buffer) and, after centrifugation (100 g, 5 min), taken up in a buffered salt solution (mmol/l: 115 NaCl, 20 NH4Cl, 5 KCl, 1 CaCl2, 1 MgSO4, 20 N-(2-hydroxyethyl)piperazine-N′-2-ethanesulfonic acid (HEPES), 5 glucose and 1 g/l of bovine serum albumin; pH 7.4). This cell suspension was incubated at 37° C. for 20 min with 5 μM BCECF-acetoxymethyl ester. The cells were then washed and resuspended in a sodium- and bicarbonate-free buffer solution (mmol/l: 5 HEPES, 133.8 choline chloride, 4.7 KCl, 1.25 MgCl2, 0.97 K2HPO4, 0.23 KH2PO4, 5 glucose; pH 7.4).
For subsequent fluorescence measurement in an FLIPR (Fluorescent Imaging Plate Reader) 100 μl of this cell suspension having 20,000 cells in each case were pipetted per well into a 96-well microtiter plate and this microtiter plate was centrifuged (100 g, 5 min).
In the FLIPR, 100 μl of buffer solution in each case were then removed from a further pretreated microtiter plate and pipetted into each of the 96 wells of the measurement plate. A bicarbonate- and sodium-containing buffer solution (mmol/l: 5 HEPES, 93.8 NaCl, 40 NaHCO3, 4.7 KCl, 1.25 CaCl2, 1.25 MgCl2, 0.97 Na2HPO4, 0.23 NaH2PO4, 5 glucose; pH 7.4) which contained 50 μM HOE 642 was used for a 100% control, i.e. a recovery of the intracellular pH (pHi) via the NCBE. For a 0% control, i.e. no pHi recovery at all, the bicarbonate-free, sodium-containing buffer solution (mmol/l: 5 HEPES, 133.8 NaCl, 4.7 KCl, 1.25 CaCl2, 1.25 MgCl2, 0.97 Na2HPO4, 0.23 NaH2PO4, 5 glucose; pH 7.4) was employed, to which 50 μM HOE 642 were likewise added. The compounds according to the invention were added to the sodium- and bicarbonate-containing solution in various concentrations.
After addition of the buffer solutions to the dye-loaded, acidified cells in the measurement plate, the rise in the fluorescence intensity which corresponded to a rise in the pHi in each well of the microtiter plate was determined. The kinetics were in this case recorded at 35° C. for a period of 2 minutes.
The increase in the fluorescence intensities for different concentrations of the compounds according to the invention was related to the two controls and from this inhibitory action of the substances was determined.
Residual Activity of the NCBE at an Inhibitor Concentration of 10 μM

Structure (SMILES)	Residual activity in % (residual activity of the NCBE) [%]
CCCCc1nc(SC)cn1Cc1ccc(-c2ccccc2S(=O)(=O)NC#N)cc1 [Example 27, 4′-(2-Butyl-4-methylsulfanylimidazol-1-ylmethyl)biphenyl-2-sulfonylcyanamide]	50.0
N#CNS(=O)(=O)c1ccccc1-c1ccc(Cn2c(-c3ccccc3)nc(-c3ccccc3)c2-c2ccccc2)cc1 [Example 31, 4′-(2,4,5-Triphenylimidazol-1-ylmethyl)biphenyl-2-sulfonylcyanamide]	36.5
COc1nc(-c2ccccc2)n(Cc2ccc(-c3ccccc3S(=O)(=O)NC#N)cc2)c1C(C)=O [Example 30, 4′-(5-Acetyl-4-methoxy-2-phenylimidazol-1-ylmethyl)biphenyl-2-sulfonylcyanamide]	48.8
N#CNS(=O)(=O)c1ccccc1-c1ccc(Cn2c(-c3ccccc3)nc(Cl)c2C=O)cc1 [Example 11, 4′-(4-Chloro-5-formyl-2-phenylimidazol-1-ylmethyl)biphenyl-2-sulfonylcyanamide]	15.0
N#CNS(=O)(=O)c1ccccc1-c1ccc(Cn2c(-c3ccccc3)nc(Oc3ccccc3)c2C=O)c(Cl)c1 [Example 35, 3′-Chloro-4′-(4-phenoxy-5-formyl-2-phenyl-imidazole-1-ylmethyl)biphenyl-2-sulfonylcyanamide]	3.2
CCCCc1nc(SC)c(C(=O)OCC)n1Cc1ccc(-c2ccc(S(=O)(=O)NC#N)cc2C(F)(F)F)cc1 [Example 23, Ethyl 2-butyl-5-methylsulfanyl-3-(4′-cyanoaminosulfonyl-2′-trifluoromethylbiphenyl-4-ylmethyl)-3H-imidazole-4-carboxylate]	31.6
CCCCc1nc(SC)c(C(=O)OCC)n1Cc1ccc(-c2cccc(S(=O)(=O)NC#N)c2)cc1 [Example 2, Ethyl 2-butyl-5-methylsulfanyl-3-(3′-cyanoaminosulfonylbiphenyl-4-ylmethyl)-3H-imidazole-4-carboxylate]	39.6
COc1nc(-c2ccccc2)n(Cc2ccc(-c3ccccc3S(=O)(=O)NC#N)cc2Cl)c1C=O [Example 34, 3′-Chloro-4′-(4-methoxy-5-formyl-2-phenyl-imidazole-1-ylmethyl)biphenyl-2-sulfonylcyanamide]	5.5
N#CNS(=O)(=O)c1ccccc1-c1ccc(Cn2cc(Cl)nc2-c2ccccc2)cc1 [Example 28, 4′-(4-Chloro-2-phenylimidazol-1-ylmethyl)biphenyl-2-sulfonylcyanamide]	30.5
N#CNS(=O)(=O)c1ccccc1-c1ccc(Cn2c(-c3ccccc3)nc(Cl)c2C=O)c(Cl)c1 [Example 32, 3′-Chloro-4′-(4-chloro-5-formyl-2-phenylimidazol-1-ylmethyl)biphenyl-2-sulfonylcyanamide]	7.8
COc1nc(-c2ccccc2)n(Cc2ccc(-c3ccccc3S(=O)(=O)NC#N)cc2)c1C=O [Example 12, 4′-(4-Methoxy-5-formyl-2-phenylimidazol-1-ylmethyl)biphenyl-2-sulfonylcyanamide]	20.8
N#CNS(=O)(=O)c1ccccc1-c1ccc(Cn2c(-c3ccccc3)nc(Cl)c2C=O)c(F)c1 [Example 33, 3′-Fluoro-4′-(4-chloro-5-formyl-2-phenyl-imidazole-1-ylmethyl)biphenyl-2-sulfonylcyanamide]	7.6
CC(=O)c1c(Cl)nc(-c2ccccc2)n1Cc1ccc(-c2ccccc2S(=O)(=O)NC#N)cc1 [Example 29, 4′-(5-Acetyl-4-chloro-2-phenylimidazol-1-ylmethyl)biphenyl-2-sulfonylcyanamide]	39.6
